Results as given in patent publication US12723063B2, “GIPR-agonist compounds” (Eli Lilly and Company, priority 2019, dated 2026).
pKi: −log10 of the molar value. *1 amine or outer side, *2 acyl side, *3 side chain or, on linkers, in order; H or OH if unused. Where a SMILES comes first, the peptide text is derived from it. Side-chain parts run from the residue outwards. [ ]: non-standard residue; d: D form. The star is where a group is joined. C20 diacid = O=C(O)CCCCCCCCCCCCCCCCCCC(=O)*; C18 diacid = O=C(O)CCCCCCCCCCCCCCCCC(=O)*; αMePhe(2-F) = C[C@](N)(Cc1ccccc1F)C(=O)O; γGlu = O=C(O)[C@H](CCC(=O)[*:2])N[*:1]; αMeY = C[C@](N)(Cc1ccc(O)cc1)C(=O)O; 4Pal = N[C@@H](Cc1ccncc1)C(=O)O; αMeL = CC(C)C[C@](C)(N)C(=O)O; AEEA = NCCOCCOCC(=O)O; Aib = CC(C)(N)C(=O)O

What was measured:
human GIPR = target: T1, human GIPR (Homo sapiens, UniProt P48546); experiment: [125I]-GIP binding, SPA with WGA beads, 0.1% bacitracin; conditions: geometric mean, read-out: hGIPR Ki
T1 construct: expressed in transfected cells; crude membranes
T1 sequence (P48546 22-466): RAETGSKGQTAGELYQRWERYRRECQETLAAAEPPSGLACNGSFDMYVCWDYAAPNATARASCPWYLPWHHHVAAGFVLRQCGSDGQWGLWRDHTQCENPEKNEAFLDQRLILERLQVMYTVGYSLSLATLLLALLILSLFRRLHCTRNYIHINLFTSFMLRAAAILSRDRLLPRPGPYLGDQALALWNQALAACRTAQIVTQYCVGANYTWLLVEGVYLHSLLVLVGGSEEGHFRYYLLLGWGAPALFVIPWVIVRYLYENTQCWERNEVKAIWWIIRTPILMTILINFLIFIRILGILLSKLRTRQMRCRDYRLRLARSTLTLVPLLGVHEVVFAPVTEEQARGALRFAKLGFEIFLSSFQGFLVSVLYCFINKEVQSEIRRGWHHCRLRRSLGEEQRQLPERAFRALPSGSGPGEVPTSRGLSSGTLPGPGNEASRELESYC
Summary of the method: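 Ki values are geometric means (SEM, n independent days), derived from four-parameter nonlinear regression of IC50. Membranes came from hGIPR-expressing CHO cells.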

[1] = target: T2, human glucose-dependent insulinotropic peptide receptor (GIPR) (Homo sapiens, UniProt P48546); experiment: cAMP functional assay (HTRF) in HEK293 cells in presence of 0.1% casein; assay type: cell-based; conditions: HEK293 cells expressing human GIPR, geometric mean, read-out: hGIPR cAMP Rel EC50 nM (SEM, n)
T2 construct: expressed in transfected cells; host or cells: HEK293
T2 sequence (P48546 22-466): T1 sequence (P48546 22-466)

Structure (SMILES) | pKi (human GIPR) | EC50 [1] [nM]
CC[C@H](C)[C@H](NC(=O)[C@H](CO)NC(=O)[C@H](Cc1ccc(O)cc1)NC(=O)[C@H](CC(=O)O)NC(=O)[C@H](CO)NC(=O)[C@@H](NC(=O)[C@H](Cc1ccccc1)NC(=O)[C@@H](NC(=O)CNC(=O)[C@H](CCC(=O)O)NC(=O)C(C)(C)NC(=O)[C@@H](N)Cc1ccc(O)cc1)[C@@H](C)O)[C@@H](C)CC)C(=O)N[C@@H](CC(C)C)C(=O)N[C@@H](CC(C)C)C(=O)N[C@@H](CC(=O)O)C(=O)N[C@@H](CCCCN)C(=O)N[C@@H](CCCCNC(=O)COCCOCCNC(=O)COCCOCCNC(=O)CC[C@H](NC(=O)CCCCCCCCCCCCCCCCCCC(=O)O)C(=O)O)C(=O)N[C@@H](C)C(=O)N[C@@H](CCC(N)=O)C(=O)NC(C)(C)C(=O)N[C@@H](CC(=O)O)C(=O)N[C@@H](Cc1ccccc1)C(=O)N[C@H](C(=O)N[C@@H](CC(N)=O)C(=O)N[C@@H](Cc1c[nH]c2ccccc12)C(=O)N[C@@H](CC(C)C)C(=O)N[C@@H](CC(C)C)C(=O)N[C@@H](C)C(=O)N[C@@H](CCC(N)=O)C(=O)NCC(=O)N1CCC[C@H]1C(=O)N[C@@H](CO)C(=O)N[C@@H](CO)C(=O)NCC(=O)N[C@@H](C)C(=O)N1CCC[C@H]1C(=O)N1CCC[C@H]1C(=O)N1CCC[C@H]1C(=O)N[C@@H](CO)C(N)=O)C(C)C [Example 8] (H-Y[Aib]EGTFISDYSILLDKK([AEEA-AEEA-γGlu-C20 diacid])AQ[Aib]DFVNWLLAQGPSSGAPPPS-NH2) | 10.57 | 0.0268
CC[C@H](C)[C@H](NC(=O)[C@H](Cc1ccccc1)NC(=O)[C@@H](NC(=O)CNC(=O)[C@H](CCC(=O)O)NC(=O)C(C)(C)NC(=O)[C@@H](N)Cc1ccc(O)cc1)[C@@H](C)O)C(=O)N[C@@H](CO)C(=O)N[C@@H](CC(=O)O)C(=O)N[C@@H](Cc1ccc(O)cc1)C(=O)N[C@@H](CO)C(=O)N[C@H](C(=O)N[C@@](C)(CC(C)C)C(=O)N[C@@H](CC(C)C)C(=O)N[C@@H](CC(=O)O)C(=O)N[C@@H](CCCCN)C(=O)N[C@@H](CCCCNC(=O)COCCOCCNC(=O)COCCOCCNC(=O)CC[C@H](NC(=O)CCCCCCCCCCCCCCCCCCC(=O)O)C(=O)O)C(=O)N[C@@H](Cc1c[nH]cn1)C(=O)N[C@@H](CCC(N)=O)C(=O)NC(C)(C)C(=O)N[C@@H](CC(=O)O)C(=O)N[C@@H](Cc1ccccc1)C(=O)N[C@H](C(=O)N[C@@H](CCC(=O)O)C(=O)N[C@@](C)(Cc1ccc(O)cc1)C(=O)N[C@@H](CC(C)C)C(=O)N[C@@H](CC(C)C)C(=O)N[C@@H](CCC(=O)O)C(=O)NCC(=O)NCC(=O)N1CCC[C@H]1C(=O)N[C@@H](CO)C(=O)N[C@@H](CO)C(=O)NCC(=O)N[C@@H](C)C(=O)N1CCC[C@H]1C(=O)N1CCC[C@H]1C(=O)N1CCC[C@H]1C(=O)N[C@@H](CO)C(N)=O)C(C)C)[C@@H](C)CC [Example 91] (H-Y[Aib]EGTFISDYSI[αMeL]LDKK([AEEA-AEEA-γGlu-C20 diacid])HQ[Aib]DFVE[αMeY]LLEGGPSSGAPPPS-NH2) | 9.91 | 0.0321
CC[C@H](C)[C@H](NC(=O)[C@H](Cc1ccccc1)NC(=O)[C@@H](NC(=O)CNC(=O)[C@H](CCC(=O)O)NC(=O)C(C)(C)NC(=O)[C@@H](N)Cc1ccc(O)cc1)[C@@H](C)O)C(=O)N[C@@H](CO)C(=O)N[C@@H](CC(=O)O)C(=O)N[C@@H](Cc1ccc(O)cc1)C(=O)N[C@@H](CO)C(=O)N[C@H](C(=O)N[C@@](C)(CC(C)C)C(=O)N[C@@H](CC(C)C)C(=O)N[C@@H](CC(=O)O)C(=O)N[C@@H](CCC(=O)O)C(=O)N[C@@H](CCCCNC(=O)COCCOCCNC(=O)COCCOCCNC(=O)CC[C@H](NC(=O)CCCCCCCCCCCCCCCCCCC(=O)O)C(=O)O)C(=O)N[C@@H](Cc1c[nH]cn1)C(=O)N[C@@H](CCC(N)=O)C(=O)NC(C)(C)C(=O)N[C@@H](CC(=O)O)C(=O)N[C@@H](Cc1ccccc1)C(=O)N[C@H](C(=O)N[C@@H](CCC(=O)O)C(=O)N[C@@H](Cc1ccncc1)C(=O)N[C@@H](CC(C)C)C(=O)N[C@@H](CC(C)C)C(=O)N[C@@H](C)C(=O)N[C@@H](CCC(N)=O)C(=O)NCC(=O)N1CCC[C@H]1C(=O)N[C@@H](CO)C(=O)N[C@@H](CO)C(=O)NCC(=O)N[C@@H](C)C(=O)N1CCC[C@H]1C(=O)N1CCC[C@H]1C(=O)N1CCC[C@H]1C(=O)N[C@@H](CO)C(N)=O)C(C)C)[C@@H](C)CC [Example 84] (H-Y[Aib]EGTFISDYSI[αMeL]LDEK([AEEA-AEEA-γGlu-C20 diacid])HQ[Aib]DFVE[4Pal]LLAQGPSSGAPPPS-NH2) | 10.23 | 0.034
CC[C@H](C)[C@H](NC(=O)[C@H](Cc1ccccc1)NC(=O)[C@@H](NC(=O)CNC(=O)[C@H](CCC(=O)O)NC(=O)C(C)(C)NC(=O)[C@@H](N)Cc1ccc(O)cc1)[C@@H](C)O)C(=O)N[C@@H](CO)C(=O)N[C@@H](CC(=O)O)C(=O)N[C@@H](Cc1ccc(O)cc1)C(=O)N[C@@H](CO)C(=O)N[C@H](C(=O)N[C@@](C)(CC(C)C)C(=O)N[C@@H](CC(C)C)C(=O)N[C@@H](CC(=O)O)C(=O)N[C@@H](CCC(=O)O)C(=O)N[C@@H](CCCCNC(=O)COCCOCCNC(=O)COCCOCCNC(=O)CC[C@H](NC(=O)CCCCCCCCCCCCCCCCCCC(=O)O)C(=O)O)C(=O)N[C@@H](Cc1c[nH]cn1)C(=O)N[C@@H](CCC(N)=O)C(=O)NC(C)(C)C(=O)N[C@@H](CC(=O)O)C(=O)N[C@@H](Cc1ccccc1)C(=O)N[C@H](C(=O)N[C@@H](CCC(=O)O)C(=O)N[C@@H](Cc1ccncc1)C(=O)N[C@@H](CC(C)C)C(=O)N[C@@H](CC(C)C)C(=O)N[C@@H](C)C(=O)N[C@H](C(=O)NCC(=O)N1CCC[C@H]1C(=O)N[C@@H](CO)C(=O)N[C@@H](CO)C(=O)NCC(=O)N[C@@H](C)C(=O)N1CCC[C@H]1C(=O)N1CCC[C@H]1C(=O)N1CCC[C@H]1C(=O)N[C@@H](CO)C(N)=O)[C@@H](C)O)C(C)C)[C@@H](C)CC [Example 83] (H-Y[Aib]EGTFISDYSI[αMeL]LDEK([AEEA-AEEA-γGlu-C20 diacid])HQ[Aib]DFVE[4Pal]LLATGPSSGAPPPS-NH2) | 9.94 | 0.0432
CC[C@H](C)[C@H](NC(=O)[C@H](CO)NC(=O)[C@H](Cc1ccc(O)cc1)NC(=O)[C@H](CC(=O)O)NC(=O)[C@H](CO)NC(=O)[C@@H](NC(=O)[C@H](Cc1ccccc1)NC(=O)[C@@H](NC(=O)CNC(=O)[C@H](CCC(=O)O)NC(=O)[C@@H](C)NC(=O)[C@@H](N)Cc1ccc(O)cc1)[C@@H](C)O)[C@@H](C)CC)C(=O)N[C@@H](CC(C)C)C(=O)N[C@@H](CC(C)C)C(=O)N[C@@H](CC(=O)O)C(=O)N[C@@H](CCCCN)C(=O)N[C@@H](CCCCNC(=O)COCCOCCNC(=O)COCCOCCNC(=O)CC[C@H](NC(=O)CCCCCCCCCCCCCCCCC(=O)O)C(=O)O)C(=O)N[C@@H](C)C(=O)N[C@@H](CCC(N)=O)C(=O)NC(C)(C)C(=O)N[C@@H](CC(=O)O)C(=O)N[C@@H](Cc1ccccc1)C(=O)N[C@H](C(=O)N[C@@H](CC(N)=O)C(=O)N[C@@H](Cc1ccncc1)C(=O)N[C@@H](CC(C)C)C(=O)N[C@@H](CC(C)C)C(=O)N[C@@H](C)C(=O)N[C@@H](CCC(N)=O)C(=O)NCC(=O)N1CCC[C@H]1C(=O)N[C@@H](CO)C(=O)N[C@@H](CO)C(=O)NCC(=O)N[C@@H](C)C(=O)N1CCC[C@H]1C(=O)N1CCC[C@H]1C(=O)N1CCC[C@H]1C(=O)N[C@@H](CO)C(N)=O)C(C)C [Example 18] (H-Y[dA]EGTFISDYSILLDKK([AEEA-AEEA-γGlu-C18 diacid])AQ[Aib]DFVN[4Pal]LLAQGPSSGAPPPS-NH2) | 10.48 | 0.00656
CC[C@H](C)[C@H](NC(=O)[C@H](CO)NC(=O)[C@H](Cc1ccc(O)cc1)NC(=O)[C@H](CC(=O)O)NC(=O)[C@H](CO)NC(=O)[C@@H](NC(=O)[C@](C)(Cc1ccccc1F)NC(=O)[C@@H](NC(=O)CNC(=O)[C@H](CCC(=O)O)NC(=O)C(C)(C)NC(=O)[C@@H](N)Cc1ccc(O)cc1)[C@@H](C)O)[C@@H](C)CC)C(=O)N[C@@H](C)C(=O)N[C@@H](CC(C)C)C(=O)N[C@@H](CC(=O)O)C(=O)N[C@@H](CCCCN)C(=O)N[C@H](C(=O)N[C@@H](Cc1c[nH]cn1)C(=O)N[C@@H](CCC(N)=O)C(=O)NC(C)(C)C(=O)N[C@@H](CC(=O)O)C(=O)N[C@@H](Cc1ccccc1)C(=O)N[C@H](C(=O)N[C@@H](CCC(=O)O)C(=O)N[C@@H](Cc1ccncc1)C(=O)N[C@@H](CCCCNC(=O)COCCOCCNC(=O)COCCOCCNC(=O)CC[C@H](NC(=O)CCCCCCCCCCCCCCCCCCC(=O)O)C(=O)O)C(=O)N[C@@H](CC(C)C)C(=O)N[C@@H](CCC(=O)O)C(=O)N[C@@H](C)C(=O)NCC(=O)N1CCC[C@H]1C(=O)N[C@@H](CO)C(=O)N[C@@H](CO)C(=O)NCC(=O)N[C@@H](C)C(=O)N1CCC[C@H]1C(=O)N1CCC[C@H]1C(=O)N1CCC[C@H]1C(=O)N[C@@H](CO)C(N)=O)C(C)C)[C@@H](C)CC [Example 113] (H-Y[Aib]EGT[αMePhe(2-F)]ISDYSIALDKIHQ[Aib]DFVE[4Pal]K([AEEA-AEEA-γGlu-C20 diacid])LEAGPSSGAPPPS-NH2) | 9.97 | 0.0142
